Measured values published in patent US20150342954A1, “2-BENZYL, 3-(PYRIMIDIN-2-YL) SUBSTITUTED PYRAZOLES USEFUL AS SGC STIMULATORS” (IRONWOOD PHARMACEUTICALS, INC., priority 2011, published 2015).
Where two headings read alike, the source gives them in different places.

What was measured:
[1] = biological target: T1, soluble guanylate cyclase (sGC) (Homo sapiens, UniProt Q02108+Q02153); assay: sGC-HEK-cGMP assay (run with SNP incubation); assay type: cell-based; details: for Emax: Table 3A, 10 μM SNP, 100% = 30 μM BAY 41-2272 with 10 μM SNP, read-out: HEK assay Emax-unconstrained (Percent); for HEK MEC-10: concentration that would elicit 10% of the Emax in the presence of 10 μM SNP; for HEK MEC-10 / EC50: Table 3D; for EC50: in the presence of 10 μM SNP
T1 construct: endogenously expressing soluble guanylate cyclase (sGC); endogenous in cells; host or cells: HEK293
T1 sequence (Q02153 1-619): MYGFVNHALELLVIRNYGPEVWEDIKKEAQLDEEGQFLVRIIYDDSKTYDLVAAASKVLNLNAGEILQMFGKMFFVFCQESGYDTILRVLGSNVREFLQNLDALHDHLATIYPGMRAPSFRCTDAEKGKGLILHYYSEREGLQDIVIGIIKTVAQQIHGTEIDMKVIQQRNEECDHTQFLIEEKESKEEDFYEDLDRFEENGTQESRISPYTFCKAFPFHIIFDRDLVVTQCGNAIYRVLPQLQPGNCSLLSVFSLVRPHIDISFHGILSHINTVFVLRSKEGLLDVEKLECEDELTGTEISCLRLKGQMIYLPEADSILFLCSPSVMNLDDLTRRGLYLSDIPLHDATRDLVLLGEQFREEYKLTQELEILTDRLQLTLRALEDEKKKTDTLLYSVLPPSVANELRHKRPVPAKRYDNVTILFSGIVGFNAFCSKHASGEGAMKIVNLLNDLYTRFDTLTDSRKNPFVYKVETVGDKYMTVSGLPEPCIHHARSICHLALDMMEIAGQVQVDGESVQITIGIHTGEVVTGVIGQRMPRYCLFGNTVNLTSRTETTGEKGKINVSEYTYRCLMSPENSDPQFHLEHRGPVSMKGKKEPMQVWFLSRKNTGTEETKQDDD
T1 sequence (Q02108 1-690): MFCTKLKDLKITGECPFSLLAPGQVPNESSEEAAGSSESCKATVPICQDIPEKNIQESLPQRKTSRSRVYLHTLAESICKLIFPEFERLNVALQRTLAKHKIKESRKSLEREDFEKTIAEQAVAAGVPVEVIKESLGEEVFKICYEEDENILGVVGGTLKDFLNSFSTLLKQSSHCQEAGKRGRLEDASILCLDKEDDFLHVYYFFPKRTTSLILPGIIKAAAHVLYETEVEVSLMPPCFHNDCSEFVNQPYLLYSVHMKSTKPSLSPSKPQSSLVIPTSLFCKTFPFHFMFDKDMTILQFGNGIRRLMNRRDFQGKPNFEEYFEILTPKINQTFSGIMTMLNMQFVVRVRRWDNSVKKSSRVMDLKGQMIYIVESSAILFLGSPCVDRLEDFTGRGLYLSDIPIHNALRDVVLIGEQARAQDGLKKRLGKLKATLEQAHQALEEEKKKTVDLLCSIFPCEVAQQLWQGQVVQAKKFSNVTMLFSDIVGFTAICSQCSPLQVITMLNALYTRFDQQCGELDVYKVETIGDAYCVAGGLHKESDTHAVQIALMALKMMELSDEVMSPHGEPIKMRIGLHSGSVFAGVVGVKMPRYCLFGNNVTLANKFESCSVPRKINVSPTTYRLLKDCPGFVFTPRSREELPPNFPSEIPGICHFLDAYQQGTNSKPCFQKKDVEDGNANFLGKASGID
Experimental: Biological Activity Measurement by the sGC-HEK-cGMP Assay
(Assay Run with SNP Incubation)
Human embryonic kidney cells (HEK293), endogenously expressing soluble guanylate cyclase (sGC), were used to evaluate the activity of test compounds. Compounds stimulating the sGC receptor should cause an increase in the intracellular concentration of cGMP. HEK 293 cells were seeded in Dulbecco's Modification of Eagle's Medium supplemented with fetal bovine serum (10% final) and L-glutamine (2 mM final) in a 2004 volume at a density of 1×10^5 cells/well in a poly-D-lysine coated 96 well flat bottom plate and grown overnight at 37° C. Medium was aspirated and cells were washed with 1× Hank's Buffered Saline Salt Solution (2004). Cells were then incubated for 15 minutes at 37° C. with 0.5 mM 3-isobutyl-1-methylxanthine (2004). Test article and sodium nitroprusside were then added to the assay mixture (24 each) and incubated at 37° C. for 10 minutes. After the 10 minute incubation, the assay mixture was aspirated and 0.1M HCl (2004) was added to the cells. The plate was incubated at 4° C. for 30 minutes in the 0.1M HCl to stop the reaction and lysed the cells. The plates were then centrifuged at 1,200 g for 5 minutes at room temperature. Supernatants were collected and transferred to a new flat bottom 96 well plate for analysis. Vehicle controls were carried out using DMSO (1%). A known sGC stimulator, BAY 41-2272, was used as the positive control. Samples were diluted with an equal volume of 1 M Ammonium Acetate (pH 7) to neutralize samples for better chromatography. A 2×cGMP standard curve was prepared in 0.1 M HCl and then diluted with an equal volume of 1 M Ammonium Acetate, with the following final concentrations in nM: 1024, 512, 256, 128, 64, 32, 16, 8, 4, 2, 1.cGMP concentrations were determined from each sample using the LC/MS conditions (Table 2 below) and calculated standard curve. EC50 values were calculated from concentration-response curves generated with GraphPad Prism Software.

[2] = biological target: T2, Human soluble guanylate cyclase enzyme (hsGC) (Homo sapiens, UniProt Q02108+Q02153); assay: Purified human sGC enzyme activity assay (without SNP); assay type: biochemical; details: compound at 30 μM, absence of SNP; fold over DMSO control; Table 5A
T2 construct: purchased Enzo Inc. ALX-201-177
T2 sequence (Q02153 1-619): T1 sequence (Q02153 1-619)
T2 sequence (Q02108 1-690): T1 sequence (Q02108 1-690)
Experimental: Biological Activity Measurements by the Purified Human sGC Enzyme Activity Assay
(§1) Human soluble guanylate cyclase enzyme (hsGC) obtained from Enzo Inc. (P/N: ALX-201-177) was used to evaluate the activity of test compounds. The assay reactions contained 0.1 M Tris (pH 8.0), 0.5 mg/mL BSA (pH 8.0), 2 mM DTT, 2 mM MgCl2, 300 μM GTP, 1 mM 3-isobutyl-1-methylxanthine (IBMX) and 5 ng human soluble guanylate cyclase enzyme. Test compounds in DMSO were then added (2 μL, 10 or 30 μM final concentration) and incubated (200 μL, 96-well plate format) at 37° C. for 30 minutes. The controls were carried out using 2 μL DMSO. After the 30 minute incubation, the reaction was stopped with the addition of 200 μl of cold methanol. The plate was then centrifuged at 3,200 rpm for 10 minutes at room temperature. Supernatants (200 μL) were collected and transferred to a new 96 well plate for analysis.
(§2) An 8 point cGMP (Sigma-Aldrich P/N: G6129) standard curve was prepared in assay buffer ranging from 0.156-20 μM. Samples for the cGMP standard curve were then diluted with an equal volume of methanol resulting in final cGMP concentrations of 0.078-10 μM.
(§3) The cGMP standard curve was generated using GraphPad Prism Software.
(§4) Calculations: Specific Activity was determined by the amount of cGMP formed (nmoles) per mg of sGC per min. Enzyme “fold-change” was calculated by dividing Specific Activity for test compounds by Specific Activity of DMSO controls.

[3] = biological target: T2, Human soluble guanylate cyclase enzyme (hsGC); assay: Purified human sGC enzyme synergy assay in the presence of 1 μM sodium nitroprusside (SNP); assay type: biochemical; details: compound at 30 μM, presence of 1 μM SNP; Table 5A
Experimental: as §1, §2, §3, §4
Biological Measurement by the Purified Human sGC Enzyme Synergy Performed in the Presence of Sodium Nitroprusside (SNP), a Nitric Oxide Donor
Enzyme assays were performed as described above, but was done in the absence or presence of 1 μM sodium nitroprusside (SNP).

[4] = top of concentration-response curve not fitted to 100%
[5] = top of concentration-response curve not fitted to 100%, read-out: HEK assay EC50-unconstrained

Row | SMILES | Emax [1, 4] [%] | HEK MEC-10 [1] | EC50 ([1]; read-out: HEK assay EC50) [µM] | EC50 [1, 5] [µM] | Enzyme Activity (increase at 30 μM without SNP) [2] | Enzyme Activity (increase at 30 μM with SNP) [3]
1 | CSc1cnc(-c2cc(-c3ccon3)n(Cc3ccccc3F)n2)nc1O [Compound 29, 2-(1-(2-fluorobenzyl)-5-(isoxazol-3-yl)-1H-pyrazol-3-yl)-5-(methylthio)pyrimidin-4-ol] | 40 to 60 | E (10 to 50 μM) | < 20 | 5 to 10 | B (2 to <5 fold increase) | D (10 or <20 fold increase)
2 | Nc1nc(-c2cc(-c3ncco3)n(Cc3ccccc3F)n2)ncc1NC(=O)C1(F)CC1 [Compound 31] | 80 to 100 | C (0.1 to <1 μM) | < 20 | 1 to 5 | B (2 to <5 fold increase) | D (10 or <20 fold increase)
3 | Fc1ccccc1Cn1nc(-c2ncccn2)c(F)c1-c1ccon1 [Compound 34] | 20 to 40 | D (1 to <10 μM) | 60 to 100 | 1 to 5 | B (2 to <5 fold increase) | D (10 or <20 fold increase)
4 | Oc1nc(-c2cc(-c3ccon3)n(Cc3ccccc3F)n2)ncc1-c1ncco1 [Compound 38] | 80 to 100 | D (1 to <10 μM) | < 20 | 5 to 10 | B (2 to <5 fold increase) | C (5 to <10 fold increase)
5 | Oc1nc(-c2cc(-c3ccon3)n(Cc3ccccc3F)n2)ncc1Sc1ccccc1 [Compound 39, 2-(1-(2-fluorobenzyl)-5-(isoxazol-3-yl)-1H-pyrazol-3-yl)-5-(phenylthio)pyrimidin-4-ol] | 100 to 120 | A (0.001 to <0.01 μM) | < 20 | 0.01 to 0.5 | D (10 or <20 fold increase) | E (20 to 30 fold increase)
6 | Oc1nc(-c2cc(-c3ccon3)n(Cc3ccccc3)n2)ncc1F [Compound 41] | 80 to 100 | B (0.01 to <0.1 μM) | < 20 | 0.5 to 1 | C (5 to <10 fold increase) | D (10 or <20 fold increase)
7 | Oc1nc(-c2cc(-c3ccon3)n(Cc3ccccc3F)n2)ncc1-c1nccs1 [Compound 42] | 40 to 60 | C (0.1 to <1 μM) | < 20 | 0.5 to 1 | B (2 to <5 fold increase) | D (10 or <20 fold increase)
8 | Oc1nc(-c2cc(-c3ccon3)n(Cc3ccccc3F)n2)ncc1-c1ccccn1 [Compound 43] | 40 to 60 | C (0.1 to <1 μM) | < 20 | 1 to 5 | B (2 to <5 fold increase) | D (10 or <20 fold increase)
9 | Oc1nc(-c2cc(-c3nccs3)n(Cc3ccccc3F)n2)ncc1F [Compound 44] | 40 to 60 | C (0.1 to <1 μM) | < 20 | 0.01 to 0.5 | B (2 to <5 fold increase) | D (10 or <20 fold increase)
10 | Oc1nc(-c2cc(-c3ccon3)n(Cc3ccccc3F)n2)ncc1-c1ccsc1 [Compound 45] | 10 to 20 | E (10 to 50 μM) | 100 to 300 | 5 to 10 | A (no increase to <2 fold increase) | B (2 to <5 fold increase)
11 | Fc1ccccc1Cn1nc(-c2ncc(Br)c(Cl)n2)cc1-c1ccon1 [Compound 52] | 40 to 60 | D (1 to <10 μM) | 60 to 100 | 10 to 50 | B (2 to <5 fold increase) | D (10 or <20 fold increase)
